The values below come from paper PMC6891286, “Towards the Development of an In vivo Chemical Probe for Cyclin G Associated Kinase (GAK)” (Molecules, 2019).

Series [1] addresses T1, GAK (Homo sapiens, UniProt O14976).
T1 sequence (O14976 1-1311): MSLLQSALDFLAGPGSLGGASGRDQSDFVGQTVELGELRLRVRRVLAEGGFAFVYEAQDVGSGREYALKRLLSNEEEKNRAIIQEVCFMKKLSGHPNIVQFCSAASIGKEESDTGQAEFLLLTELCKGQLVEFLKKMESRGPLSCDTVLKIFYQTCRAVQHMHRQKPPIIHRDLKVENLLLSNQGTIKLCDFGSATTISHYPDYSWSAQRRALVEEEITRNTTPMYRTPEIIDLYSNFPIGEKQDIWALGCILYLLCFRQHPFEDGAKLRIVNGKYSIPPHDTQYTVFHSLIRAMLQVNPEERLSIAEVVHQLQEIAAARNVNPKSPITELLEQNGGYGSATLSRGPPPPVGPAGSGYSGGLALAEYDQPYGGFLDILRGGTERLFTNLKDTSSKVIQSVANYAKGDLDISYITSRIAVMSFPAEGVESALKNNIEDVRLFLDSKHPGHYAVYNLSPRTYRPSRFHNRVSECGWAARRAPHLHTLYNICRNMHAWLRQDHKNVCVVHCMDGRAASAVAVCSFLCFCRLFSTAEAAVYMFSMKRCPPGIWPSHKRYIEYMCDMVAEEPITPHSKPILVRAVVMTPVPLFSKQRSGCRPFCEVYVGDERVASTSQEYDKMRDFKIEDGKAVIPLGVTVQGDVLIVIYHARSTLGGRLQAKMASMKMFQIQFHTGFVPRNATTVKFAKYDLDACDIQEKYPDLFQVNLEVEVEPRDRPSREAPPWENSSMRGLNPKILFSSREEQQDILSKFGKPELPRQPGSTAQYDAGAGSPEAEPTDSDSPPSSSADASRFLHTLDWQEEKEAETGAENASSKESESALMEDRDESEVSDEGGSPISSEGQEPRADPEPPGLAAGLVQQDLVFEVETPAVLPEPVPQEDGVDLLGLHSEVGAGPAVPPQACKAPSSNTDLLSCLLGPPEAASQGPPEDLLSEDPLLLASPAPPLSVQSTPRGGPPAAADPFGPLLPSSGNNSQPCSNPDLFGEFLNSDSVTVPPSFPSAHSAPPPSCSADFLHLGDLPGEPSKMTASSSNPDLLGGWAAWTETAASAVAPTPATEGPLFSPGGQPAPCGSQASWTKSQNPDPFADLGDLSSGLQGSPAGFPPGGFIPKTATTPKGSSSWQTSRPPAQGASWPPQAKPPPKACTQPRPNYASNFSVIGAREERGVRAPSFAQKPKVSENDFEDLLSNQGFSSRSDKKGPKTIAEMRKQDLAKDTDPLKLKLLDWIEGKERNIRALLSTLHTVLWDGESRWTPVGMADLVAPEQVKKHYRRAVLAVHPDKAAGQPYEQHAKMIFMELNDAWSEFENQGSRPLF
As to the kind of experiment: TR-FRET ligand-binding displacement assay. (TR-FRET usually uses a lanthanide donor and a delayed reading to cut background.)

The nature of series [2]: mouse liver microsome metabolic stability. To be noted: mouse liver microsomes; for T1/2 Ratio (+) ABT / T1/2 Ratio (−) ABT: normalized to propranolol; for T1/2 Ratio: normalization with respect to internal control (propranolol); for CLint scaled / half-life: mouse; for half-life: mean average, n = 2. The method, then:
SGC-GAK-1 (1) was incubated with MLMs in the presence or absence of added NADPH, and the compound was quantified at various time points over an hour.
The metabolic stability of the 4-anilinoquinolines (8–13) were evaluated in MLMs (Table 1). Half-lives for metabolic clearance were normalized to propranolol in each experimental run to control for variations in the MLM preparations.
Background: Liver microsomes are a subcellular fraction often used to study metabolism.

The target of series [3] is T2, AAK1 (Homo sapiens, UniProt Q2M2I8). Kind of series: NAK family TR-FRET binding displacement assay. To be noted: NAK family FRET screening.
T2 sequence (Q2M2I8 whole entry): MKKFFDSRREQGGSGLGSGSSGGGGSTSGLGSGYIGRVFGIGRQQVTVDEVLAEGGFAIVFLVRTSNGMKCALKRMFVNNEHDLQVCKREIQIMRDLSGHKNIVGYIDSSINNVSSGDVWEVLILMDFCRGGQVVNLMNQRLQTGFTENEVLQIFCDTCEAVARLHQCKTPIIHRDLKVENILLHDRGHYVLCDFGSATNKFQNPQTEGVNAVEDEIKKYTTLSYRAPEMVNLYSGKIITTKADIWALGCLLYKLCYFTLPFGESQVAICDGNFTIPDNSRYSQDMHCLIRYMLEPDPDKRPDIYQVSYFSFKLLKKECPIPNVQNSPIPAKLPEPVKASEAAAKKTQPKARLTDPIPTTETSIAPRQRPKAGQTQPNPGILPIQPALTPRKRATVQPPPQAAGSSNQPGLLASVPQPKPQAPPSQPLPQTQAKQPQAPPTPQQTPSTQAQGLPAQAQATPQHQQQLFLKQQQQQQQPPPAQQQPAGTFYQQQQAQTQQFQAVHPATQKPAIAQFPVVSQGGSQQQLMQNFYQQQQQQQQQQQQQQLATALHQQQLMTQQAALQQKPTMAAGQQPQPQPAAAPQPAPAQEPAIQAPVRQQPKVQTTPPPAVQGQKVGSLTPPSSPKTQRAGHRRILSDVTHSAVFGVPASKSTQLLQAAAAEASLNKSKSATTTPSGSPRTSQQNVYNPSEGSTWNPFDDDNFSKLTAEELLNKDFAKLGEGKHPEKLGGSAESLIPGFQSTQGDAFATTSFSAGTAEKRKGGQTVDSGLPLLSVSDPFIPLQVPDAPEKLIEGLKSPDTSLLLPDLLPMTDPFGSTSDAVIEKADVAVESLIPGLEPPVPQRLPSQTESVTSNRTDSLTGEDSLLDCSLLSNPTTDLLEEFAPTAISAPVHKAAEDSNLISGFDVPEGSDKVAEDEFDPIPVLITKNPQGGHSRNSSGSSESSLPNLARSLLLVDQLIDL
Another series has as its target BMP2K (Homo sapiens, UniProt Q9NSY1). Kind of series: NAK family TR-FRET binding displacement assay.
For series [4], the target named is T3, STK16 (Homo sapiens, UniProt O75716). Kind of series: NAK family TR-FRET binding displacement assay. The conditions noted are these: NAK family FRET screening; read-out: Binding displacement assay STK16 Ki.
T3 sequence (O75716 whole entry): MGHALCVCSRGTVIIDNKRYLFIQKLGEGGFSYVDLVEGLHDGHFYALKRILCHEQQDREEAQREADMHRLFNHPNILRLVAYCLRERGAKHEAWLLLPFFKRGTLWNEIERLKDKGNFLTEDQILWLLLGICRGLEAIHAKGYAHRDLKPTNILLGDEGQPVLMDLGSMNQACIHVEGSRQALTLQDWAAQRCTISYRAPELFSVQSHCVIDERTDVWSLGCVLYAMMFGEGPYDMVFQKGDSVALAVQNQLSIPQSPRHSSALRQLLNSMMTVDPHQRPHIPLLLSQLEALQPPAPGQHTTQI
The nature of a further series: Kinetic Solubility. It counts as physicochemical. The conditions noted are these: pH 7.4, aqueous buffer, kinetic from dmso stock, PBS pH7.4 (100 µM).
Series [5] concerns the target T1, GAK. The conditions noted are these: TR-FRET assay; read-out: Biochemical GAK Ki; cited from earlier work.
Series [6] deals with T1, GAK. The conditions noted are these: nanoBRET; read-out: Live Cell GAK IC50; cited from earlier work. For orientation: Bioluminescence resonance energy transfer reports proximity on the nanometre scale.
Series [7] addresses T1, GAK. Kind of series: live cell NanoBRET target engagement assay. The conditions noted are these: nanoBRET; mean average, n = 2. It counts as cell-based.
In another series the test system is EGFR(L747-T751del,Sins). Kind of series: KINOMEscan. It counts as binding, human. To be noted: 35 at 1 µM; read-out: % inhibition. Here is the method: (§1) KinomeScan Assay on 35 was performed as previously described at EuroFins DiscoverX (Fremont, CA, USA).
In the next series the test system is FLT3(ITD). As to the kind of experiment: KINOMEscan. It is filed as binding, human. The conditions noted are these: 35 at 1 µM; read-out: % inhibition. Here is the method:
as §1

A further series concerns FLT3(ITD,D835V). Kind of series: KINOMEscan. It is filed as binding, human. The conditions noted are these: 35 at 1 µM; read-out: % inhibition. Here is the method:
as §1

A further series relates to FLT3(ITD,F691L). As to the kind of experiment: KINOMEscan. It is filed as binding, human. To be noted: 35 at 1 µM; read-out: % inhibition. The method, then: as §1
For series [8], the target named is T2, AAK1. Kind of series: KINOMEscan. It counts as binding. On the set-up: purchased Eurofins DiscoverX (KINOMEscan). To be noted: 35 at 1 µM; read-out: % inhibition. Here is the method: as §1
In series [9] the target is T1, GAK. As to the kind of experiment: KINOMEscan. It is filed as binding. Also on record: purchased Eurofins DiscoverX (KINOMEscan). Here is the method: as §1
For series [10], the target named is T3, STK16. Kind of series: KINOMEscan. It counts as binding. The conditions noted are these: 35 at 1 µM; read-out: % inhibition. On the set-up: purchased Eurofins DiscoverX (KINOMEscan). The method, then: as §1
The mark [11] stands for this setting: Clint (mL/min/kg) (+) ABT, (+) ABT.
[12] abbreviates: Clint (mL/min/kg) (−) ABT, (−) ABT.
Where [13] appears, read: T1/2 (min), mouse liver microsomes with NADPH.
Where [14] appears, read: read-out: Kinetic Solubility µM.
[15] abbreviates: read-out: Kinetic Solubility µg/mL.

Read-outs that look alike come from different tables or passages of the source.

By Ki is commonly meant the dissociation constant of the complex between target and ligand, obtained from inhibition or displacement. For orientation: CLint scaled means the capacity of the preparation to metabolise the compound, expressed as a volume cleared per time. Lower therefore signals greater metabolic stability. What is called half-life is the time in which the quantity being followed falls by half. As a reminder, the IC50 is the concentration needed to halve the response being measured.

Sequence of BMP2K (Q9NSY1 whole entry): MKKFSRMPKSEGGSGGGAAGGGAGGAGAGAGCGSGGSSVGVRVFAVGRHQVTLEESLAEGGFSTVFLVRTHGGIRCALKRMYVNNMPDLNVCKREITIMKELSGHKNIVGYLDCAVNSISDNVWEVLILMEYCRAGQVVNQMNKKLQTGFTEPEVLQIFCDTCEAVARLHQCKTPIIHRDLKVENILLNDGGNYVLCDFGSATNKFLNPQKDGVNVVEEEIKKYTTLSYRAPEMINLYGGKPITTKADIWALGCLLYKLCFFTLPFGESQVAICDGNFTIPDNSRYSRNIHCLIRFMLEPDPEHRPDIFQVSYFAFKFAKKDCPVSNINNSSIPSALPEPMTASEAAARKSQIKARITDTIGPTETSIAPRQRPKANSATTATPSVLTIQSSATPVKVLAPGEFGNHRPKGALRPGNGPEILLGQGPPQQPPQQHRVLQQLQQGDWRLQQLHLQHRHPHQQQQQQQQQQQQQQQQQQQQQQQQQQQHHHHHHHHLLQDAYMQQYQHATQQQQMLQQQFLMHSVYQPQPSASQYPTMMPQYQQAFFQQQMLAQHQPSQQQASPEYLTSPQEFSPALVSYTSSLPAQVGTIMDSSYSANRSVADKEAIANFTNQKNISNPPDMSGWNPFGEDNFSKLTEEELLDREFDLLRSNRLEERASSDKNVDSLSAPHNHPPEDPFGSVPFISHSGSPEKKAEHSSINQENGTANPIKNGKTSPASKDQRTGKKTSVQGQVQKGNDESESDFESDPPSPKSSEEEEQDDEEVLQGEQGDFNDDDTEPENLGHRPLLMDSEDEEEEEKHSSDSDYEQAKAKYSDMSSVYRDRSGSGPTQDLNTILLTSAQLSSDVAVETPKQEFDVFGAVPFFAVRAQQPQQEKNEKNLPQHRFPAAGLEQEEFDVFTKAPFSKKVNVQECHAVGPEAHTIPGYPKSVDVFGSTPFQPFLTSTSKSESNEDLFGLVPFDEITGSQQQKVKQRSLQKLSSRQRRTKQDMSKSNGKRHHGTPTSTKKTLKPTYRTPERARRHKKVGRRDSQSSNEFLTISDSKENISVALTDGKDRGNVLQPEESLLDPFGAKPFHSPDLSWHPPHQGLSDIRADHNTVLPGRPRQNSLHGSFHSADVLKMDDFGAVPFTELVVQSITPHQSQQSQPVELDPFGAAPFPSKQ

`COc1cc2nccc(Nc3cc(OC)c(OC)c(OC)c3)c2cc1OC` [Compound 8]: the Ki is 0.54 nM on GAK [1] (NAK family FRET screening, read-out: Binding displacement assay GAK Ki); 28000 nM on AAK1 [3]; 63000 nM on BMP2K; over 100000 nM at STK16 [4]; 0.54 nM on GAK [5]. The “T1/2 Ratio (+) ABT” value in series [2] ((+) ABT) came to 14.7. The “T1/2 Ratio (−) ABT” value in series [2] ((−) ABT) was 1.3. Moreover, in [2], the “T1/2 Ratio” value amounted to 1.6. For the same compound, the CLint scaled in series [2] (setting [11]) is under 28 mL/min/kg; in [2] (setting [12]), 320 mL/min/kg. Further, the half-life in series [2] (T1/2 (min) (+) ABT, (+) ABT) was over 200 min; in series [2] (T1/2 (min) (−) ABT, (−) ABT), 18 min; in series [2] (setting [13]), 12.2 min. Besides, the solubility kinetic in the series “Kinetic Solubility” (setting [14]) was determined as 128 µM; in the series “Kinetic Solubility” (setting [15]) it was 47.6 µg/mL. For the same compound, the IC50 on GAK [6] was 25 nM.
Turning to `Brc1ccc2nccc(Nc3ccc4cn[nH]c4c3)c2c1` [Compound 35, 6-Bromo-N-(1H-indazol-6-yl)quinolin-4-amine], the Ki on GAK [1] (TR-FRET assay, read-out: Biochemical GAK Ki) came out at 20 nM; at AAK1 [3], 2100 nM; at BMP2K, 6500 nM; on STK16 [4], 7400 nM. The IC50 against GAK [7] worked out at 1400 nM. For the same compound, the “T1/2 ratios fold higher than 9” value in [2] is listed as at least 2 fold. In addition, the “T1/2 Ratio (+) ABT” value in series [2] ((+) ABT) was found to be 17.5. The “T1/2 Ratio (−) ABT” value in series [2] ((−) ABT) is on record as 9.8. Also, in series [2], the “T1/2 Ratio” value is reported as 9.8. In addition, the results for the CLint scaled in series [2] (setting [11]) and in series [2] (setting [12]) were 35 mL/min/kg and 120 mL/min/kg, respectively. Moreover, the half-life in series [2] (T1/2 (min) (+) ABT, (+) ABT) came to 170 min; in series [2] (T1/2 (min) (−) ABT, (−) ABT) it was 46 min; in [2] (setting [13]), 45.6 min. Also, the solubility kinetic is 12.3 µM in “Kinetic Solubility” (setting [14]) and 4.2 µg/mL in the series “Kinetic Solubility” (setting [15]). Also, the activity with EGFR(L747-T751del,Sins) was 100%; with FLT3(ITD), 97%; with FLT3(ITD,D835V), 100%; in the series with FLT3(ITD,F691L) it was 100%. Further, the activity at 1 µM on AAK1 [8] stood at 100%; on GAK [9] (35 at 1 µM, read-out: % inhibition), 10%; on STK16 [10] it was 98%. Besides, at GAK [9] (KinomeScan, screened at 1 μM, read-out: kinases inhibited at 1 μM: GAK), the inhibition at 1 µM was determined as 90%.
